Results taken from patent US11524966B1 (Valo Early Discovery, Inc., priority 2017, dated 2022).

These compounds were tested against T1, USP28 (His-tagged USP28-FL-mammalian) (Homo sapiens, UniProt Q96RU2) (assay: Ubiquitin-Rhodamine 110 Assay for USP28 Activity, Example A-1(a)). Details: Ubiquitin-Rhodamine 110 assay, Example A-1(a); read-out: USP28 A-1(a) IC50 range.
T1 construct: Expression of USP28 (1-1077)-TEV-6*His (pTT5 vector); made in house; host or cells: Expi293f cells (pTT5 vector)
T1 sequence (Q96RU2 1-1077): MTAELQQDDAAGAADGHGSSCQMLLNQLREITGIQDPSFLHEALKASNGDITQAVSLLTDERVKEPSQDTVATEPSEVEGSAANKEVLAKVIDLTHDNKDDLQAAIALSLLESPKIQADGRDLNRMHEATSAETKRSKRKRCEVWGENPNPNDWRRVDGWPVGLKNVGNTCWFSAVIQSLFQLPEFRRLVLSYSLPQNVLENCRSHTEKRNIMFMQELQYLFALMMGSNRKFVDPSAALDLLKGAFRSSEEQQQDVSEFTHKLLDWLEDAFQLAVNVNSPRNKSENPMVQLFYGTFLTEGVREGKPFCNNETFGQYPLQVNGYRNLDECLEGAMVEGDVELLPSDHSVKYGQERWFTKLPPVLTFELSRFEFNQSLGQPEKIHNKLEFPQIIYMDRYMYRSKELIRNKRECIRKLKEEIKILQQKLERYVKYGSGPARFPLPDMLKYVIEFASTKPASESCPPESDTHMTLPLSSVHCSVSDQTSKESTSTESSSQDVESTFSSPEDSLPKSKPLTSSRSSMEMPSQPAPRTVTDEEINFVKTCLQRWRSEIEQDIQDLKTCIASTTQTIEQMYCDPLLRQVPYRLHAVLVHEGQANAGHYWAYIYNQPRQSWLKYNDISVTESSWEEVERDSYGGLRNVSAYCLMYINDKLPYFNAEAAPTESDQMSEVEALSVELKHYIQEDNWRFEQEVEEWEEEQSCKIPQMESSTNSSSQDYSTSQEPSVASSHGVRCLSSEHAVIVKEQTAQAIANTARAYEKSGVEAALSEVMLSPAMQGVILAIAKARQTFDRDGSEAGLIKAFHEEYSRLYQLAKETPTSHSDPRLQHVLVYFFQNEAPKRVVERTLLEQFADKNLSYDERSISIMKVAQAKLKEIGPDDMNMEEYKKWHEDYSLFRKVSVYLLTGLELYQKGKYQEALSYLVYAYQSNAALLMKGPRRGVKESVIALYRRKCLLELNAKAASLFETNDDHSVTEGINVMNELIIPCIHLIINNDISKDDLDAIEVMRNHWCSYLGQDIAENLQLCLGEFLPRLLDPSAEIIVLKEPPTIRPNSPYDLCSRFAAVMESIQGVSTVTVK
Format: biochemical
Procedure: Example A-1(a): Biochemical Assay: Ubiquitin-Rhodamine 110 Assay for USP28 Activity
The assay was performed in a final volume of 9 μL in assay buffer containing 20 mM Tris-HCl (pH 8.0, (1M Tris-HCl, pH 8.0 solution; Corning 46-031-CM)), 3 mM BME (2-Mercaptoethanol; Sigma 63689-25ML-F), 0.03% BGG (0.22 μM filtered, Sigma, G7516-25G), and 0.01% Triton X-100 (Sigma, T9284-10L). Nanoliter quantities of 10-point, 3-fold serial dilution in DMSO was pre-dispensed into 1536 assay plates (Corning, #3724BC) for a final test concentration of 25 μM to 1.3 nM, top to lowest dose, respectively. Enzyme USP28, construct His-tagged USP28-FL-mammalian, (protein expression and purification procedure described below). Concentration and incubation times were optimized for the maximal signal-to-background while maintaining initial velocity conditions at a fixed substrate concentration. The final concentration of the enzyme in the assay was 75 μM. Final substrate (Ub-Rh110; Ubiquitin-Rhodamine 110, UbiQ-126) concentration was 25 nM with [Ub-Rh110]<<Km. 3 μL of 2× enzyme was added to assay plates (pre-stamped with compound) preincubated with […] for 30 minutes and then 3 μL of 2×Ub-Rh110 was added to assay plates. Plates were incubated for 45 minutes at room temperature before addition of 3 μL of stop solution (final concentration of 10 mM citric acid (Sigma, 251275-500G)). Fluorescence was read on the Envision (Excitation at 485 nm and Emission at 535 nm; Perkin Elmer) or on the PheraSTAR (Excitation at 485 nm and Emission at 535 nm; BMG Labtech).
Procedure for the Protein Expression and Purification for Construct His-Tagged USP28-FL-Mammalian
Expression of USP28 (1-1077)-TEV-6*His (pTT5 vector) was carried out in Expi293f cells (sequence derived from uniprot ID: Q96RU2-1). Cells were re-suspended in lysis buffer B 50 mM Bicine, pH 8.0, 20 mM NaCl, 5% glycerol, 0.1% CHAPS, 5 mM β-ME, 1 mM PMSF, 1 ug/ml Leupeptin, 1 ug/ml Pepstatin) and lysed by sonication. Insoluble material was removed by centrifugation and the supernatant was loaded onto a Ni-NTA column (GE Healthcare) equilibrated with Ni Buffer A (50 mM Bicine, pH 8.0, 20 mM NaCl, 5% glycerol, 0.1% CHAPS, 5 mM β-ME.) and washed with Ni Buffer A+20 mM imidazole until A280 reached baseline. The protein was eluted with Ni Buffer B (50 mM Bicine, pH 8.0, 20 mM NaCl, 5% glycerol, 0.1% CHAPS, 5 mM β-ME, 300 mM imidazole.). The protein was further purified using a Superdex™ 200 10/300 GL column (GE Healthcare) equilibrated with 50 mM Bicine, pH 8.0, 20 mM NaCl, 5% glycerol, 0.1% CHAPS, 5 mM β-ME. The protein was concentrated to 2.5 mg ml^−1, flash-frozen in liquid N2 and stored at −80° C.
For assay formats Example A-1(a), A-1(b), and A-2, data were reported as percent inhibition compared with control wells based on the following equation: % inh=1−((FLU−AveLow)/(AveHigh−AveLow)) where FLU=measured Fluorescence, AveLow=average Fluorescence of no enzyme control (n=16), and AveHigh=average Fluorescence of DMSO control (n=16). IC50 values were determined by curve fitting of the standard 4 parameter logistic fitting algorithm included in the Activity Base software package: IDBS XE Designer Model 205. Data is fitted using the Levenburg Marquardt algorithm.
`CO[C@@]12CCN[C@H]1CN(c1ccc3c(c1)OC[C@H](NC(=O)c1sc4nc(C)ccc4c1N)C3)C2` [Example 289, N-[(3R)-7-[(3aR,6aS)-3a-methoxy-octahydropyrrolo[2,3-c]pyrrol-5-yl]-3,4-dihydro-2H-1-benzopyran-3-yl]-3-amino-6-methylthieno[2,3-b]pyridine-2-carboxamide] was tested, and the IC50 was 1 to 50 nM. For `CO[C@]12CCN[C@@H]1CN(c1ccc3c(c1)OC[C@H](NC(=O)c1sc4nc(C)ccc4c1N)C3)C2` [Example 290, N-[(3R )-7-[(3aS,6aR)-3a-methoxy-octahydropyrrolo[2,3-c]pyrrol-5-yl]-3,4-dihydro-2H-1-benzopyran-3-yl]-3-amino-6-methylthieno[2,3-b]pyridine-2-carboxamide], the IC50 was 1 to 50 nM. With `Cc1ccc2c(N)c(C(=O)N[C@H]3CCc4nc(N5C[C@@H]6CCN[C@H](C5)C6(F)F)ccc4C3)sc2n1` [Example 367, 3-amino-N-[(6S)-2-[(1R,5S)-9,9-difluoro-2,7-diazabicyclo[3.3.1]nonan-7-yl]-5,6,7,8-tetrahydroquinolin-6-yl]-6-methylthieno[2,3-b]pyridine-2-carboxamide] the IC50 was 1 to 50 nM. `Cc1ccc2c(N)c(C(=O)N[C@H]3CCc4nc(N5C[C@H]6CCN[C@@H](C5)C6(F)F)ccc4C3)sc2n1` [Example 368, 3-amino-N-[(6S)-2-[(1S,5R)-9,9-difluoro-2,7-diazabicyclo[3.3.1]nonan-7-yl]-5,6,7,8-tetrahydroquinolin-6-yl]-6-methylthieno[2,3-b]pyridine-2-carboxamide] was tested, and the IC50 was 1 to 50 nM. `CCn1ccc2cc(C(=O)N[C@H]3CCc4nc(N5C[C@H](C(F)F)[C@@H](N)C5)ccc4C3)cnc21` [Example 370, N-[(6S)-2-[(3R,4S)-3-amino-4-(difluoromethyl)pyrrolidin-1-yl]-5,6,7,8-tetrahydroquinolin-6-yl]-1-ethyl-1H-pyrrolo[2,3-b]pyridine-5-carboxamide] gave an IC50 of 200 to 2000 nM. For `CCn1ccc2cc(C(=O)N[C@H]3CCc4nc(N5C[C@@H](N)[C@H](C(F)F)C5)ccc4C3)cnc21` [Example 371, N-[(6S)-2-[(3S,4R)-3-amino-4-(difluoromethyl)pyrrolidin-1-yl]-5,6,7,8-tetrahydroquinolin-6-yl]-1-ethyl-1H-pyrrolo[2,3-b]pyridine-5-carboxamide], the IC50 was 200 to 2000 nM. With `CC(=O)N[C@@H]1CN(c2ccc3c(n2)CC[C@H](NC(=O)c2sc4nc(C)ccc4c2N)C3)C[C@H]1C(F)F` [Example 372, 3-amino-N-[(6S)-2-[(3R,4S)-3-(difluoromethyl)-4-acetamidopyrrolidin-1-yl]-5,6,7,8-tetrahydroquinolin-6-yl]-6-methylthieno[2,3-b]pyridine-2-carboxamide] the IC50 was 50 to 200 nM. In the case of `COCC1(N)CN(c2ccc3c(c2)OC[C@H](NC(=O)c2sc4nc(C)ccc4c2N)C3)C1` [Example 373, 3-amino-N-[(3R)-7-[3-amino-3-(methoxymethyl)azetidin-1-yl]-3,4-dihydro-2H-1-benzopyran-3-yl]-6-methylthieno[2,3-b]pyridine-2-carboxamide], the IC50 is reported as 1 to 50 nM. Work on `Cc1ccc2c(N)c(C(=O)N[C@H]3CCc4nc(N5CCN[C@H](C(F)F)C5)ccc4C3)sc2n1` [Example 374, 3-amino-N-[(6S)-2-[(3S)-3-(difluoromethyl)piperazin-1-yl]-5,6,7,8-tetrahydroquinolin-6-yl]-6-methylthieno[2,3-b]pyridine-2-carboxamide] yielded an IC50 of 50 to 200 nM. `Cc1ccc2c(N)c(C(=O)N[C@H]3CCc4nc(N5CCN[C@@H](C(F)F)C5)ccc4C3)sc2n1` [Example 375, 3-amino-N-[(6S)-2-[(3R)-3-(difluoromethyl)piperazin-1-yl]-5,6,7,8-tetrahydroquinolin-6-yl]-6-methylthieno[2,3-b]pyridine-2-carboxamide] was tested, and the IC50 was 50 to 200 nM. `CN[C@H]1CN(c2ccc3c(n2)CC[C@H](NC(=O)c2sc4nc(C)ccc4c2N)C3)C[C@@H]1C(F)F` [Example 376, 3-amino-N-[(6S)-2-[(3S,4R)-3-(difluoromethyl)-4-(methylamino)pyrrolidin-1-yl]-5,6,7,8-tetrahydroquinolin-6-yl]-6-methylthieno[2,3-b]pyridine-2-carboxamide] gave an IC50 of 50 to 200 nM. Compound `CN[C@@H]1CN(c2ccc3c(n2)CC[C@H](NC(=O)c2sc4nc(C)ccc4c2N)C3)C[C@H]1C(F)F` [Example 377, 3-amino-N-[(6S)-2-[(3R,4S)-3-(difluoromethyl)-4-(methylamino)pyrrolidin-1-yl]-5,6,7,8-tetrahydroquinolin-6-yl]-6-methylthieno[2,3-b]pyridine-2-carboxamide] has an IC50 of 50 to 200 nM. Compound `Cc1ccc2c(N)c(C(=O)N[C@H]3COc4nc(N5C[C@H](C(F)F)[C@@H](N)C5)ccc4C3)sc2n1` [Example 378, 3-amino-N-[(3R)-7-[(3R,4S)-3-amino-4-(difluoromethyl)pyrrolidin-1-yl]-2H,3H,4H-pyrano[2,3-b]pyridin-3-yl]-6-methylthieno[2,3-b]pyridine-2-carboxamide] has an IC50 of 50 to 200 nM. `Cc1ccc2c(N)c(C(=O)N[C@H]3COc4nc(N5C[C@@H](N)[C@H](C(F)F)C5)ccc4C3)sc2n1` [Example 379, 3-amino-N-[(3R)-7-[(3S,4R)-3-amino-4-(difluoromethyl)pyrrolidin-1-yl]-2H,3H,4H-pyrano[2,3-b]pyridin-3-yl]-6-methylthieno[2,3-b]pyridine-2-carboxamide] showed an IC50 of 200 to 2000 nM. `Cc1ccc2c(N)c(C(=O)N[C@H]3CCc4nc(N5C[C@H](C(F)F)[C@@H](N)C5)ncc4C3)sc2n1` [Example 380, 3-amino-N-[(6S)-2-[(3R,4S)-3-amino-4-(difluoromethyl)pyrrolidin-1-yl]-5,6,7,8-tetrahydroquinazolin-6-yl]-6-methylthieno[2,3-b]pyridine-2-carboxamide] was tested, and the IC50 was 50 to 200 nM.
